According to patent publication US12673975B2, “Cyclic peptide, cell scaffold material, cell separating material, and medium” (FUJIFILM Corporation, priority 2019, dated 2026):
pKd: −log10 of the molar value. Where two headings read alike, the source gives them in different places. Starred links: 1 amine or outer side, 2 acyl side, 3 side chain; linkers in the order of their positions; H or OH if unused. Positions of bridges follow the written chain, without caps; N, C: chain ends. Non-standard residues stand in square brackets, D forms with d. Residues, ends and D or L forms follow the SMILES beside them. Pen = CC(C)(S)[C@H](N)C(=O)O; hCys = N[C@@H](CCS)C(=O)O; Dab = NCC[C@H](N)C(=O)O; X1 = O=C(C[*:2])[*:1]; X2 = O=C(C[*:1])[*:2]

Legend:
[1] = biological target: human integrin αvβ5 (Homo sapiens, UniProt P06756+P18084); assay: Evaluation of integrin binding property (surface plasmon resonance, Biacore 3000, immobilized cyclic peptide)
Chain of human integrin αvβ5 (P06756 31-1048): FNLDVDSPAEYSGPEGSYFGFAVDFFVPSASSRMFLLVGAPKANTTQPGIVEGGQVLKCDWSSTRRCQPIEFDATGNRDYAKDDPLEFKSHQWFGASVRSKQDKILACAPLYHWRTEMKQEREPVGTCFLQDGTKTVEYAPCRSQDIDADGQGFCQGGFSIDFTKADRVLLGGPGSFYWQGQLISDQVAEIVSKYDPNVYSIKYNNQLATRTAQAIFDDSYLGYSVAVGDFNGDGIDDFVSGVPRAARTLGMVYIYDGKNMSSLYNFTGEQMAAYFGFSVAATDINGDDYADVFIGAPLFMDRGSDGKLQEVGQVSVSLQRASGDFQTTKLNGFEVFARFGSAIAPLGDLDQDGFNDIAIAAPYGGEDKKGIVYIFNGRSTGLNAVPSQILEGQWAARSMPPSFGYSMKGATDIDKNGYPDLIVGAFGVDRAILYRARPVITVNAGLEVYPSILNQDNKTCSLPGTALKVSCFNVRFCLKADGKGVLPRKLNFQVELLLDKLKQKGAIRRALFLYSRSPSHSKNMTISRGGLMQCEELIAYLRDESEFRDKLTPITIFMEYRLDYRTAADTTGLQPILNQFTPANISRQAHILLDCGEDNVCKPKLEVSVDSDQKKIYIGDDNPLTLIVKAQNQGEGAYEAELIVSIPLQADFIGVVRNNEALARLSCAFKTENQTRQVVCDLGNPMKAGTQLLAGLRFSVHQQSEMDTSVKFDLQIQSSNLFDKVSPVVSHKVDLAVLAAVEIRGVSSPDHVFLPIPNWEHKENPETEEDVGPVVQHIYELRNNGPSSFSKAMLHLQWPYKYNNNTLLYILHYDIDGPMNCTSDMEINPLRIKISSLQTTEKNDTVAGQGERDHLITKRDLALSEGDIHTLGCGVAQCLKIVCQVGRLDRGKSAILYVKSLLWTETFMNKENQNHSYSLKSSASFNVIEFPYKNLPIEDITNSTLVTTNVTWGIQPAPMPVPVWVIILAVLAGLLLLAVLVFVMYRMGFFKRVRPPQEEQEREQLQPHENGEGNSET
Chain of human integrin αvβ5 (P18084 24-799): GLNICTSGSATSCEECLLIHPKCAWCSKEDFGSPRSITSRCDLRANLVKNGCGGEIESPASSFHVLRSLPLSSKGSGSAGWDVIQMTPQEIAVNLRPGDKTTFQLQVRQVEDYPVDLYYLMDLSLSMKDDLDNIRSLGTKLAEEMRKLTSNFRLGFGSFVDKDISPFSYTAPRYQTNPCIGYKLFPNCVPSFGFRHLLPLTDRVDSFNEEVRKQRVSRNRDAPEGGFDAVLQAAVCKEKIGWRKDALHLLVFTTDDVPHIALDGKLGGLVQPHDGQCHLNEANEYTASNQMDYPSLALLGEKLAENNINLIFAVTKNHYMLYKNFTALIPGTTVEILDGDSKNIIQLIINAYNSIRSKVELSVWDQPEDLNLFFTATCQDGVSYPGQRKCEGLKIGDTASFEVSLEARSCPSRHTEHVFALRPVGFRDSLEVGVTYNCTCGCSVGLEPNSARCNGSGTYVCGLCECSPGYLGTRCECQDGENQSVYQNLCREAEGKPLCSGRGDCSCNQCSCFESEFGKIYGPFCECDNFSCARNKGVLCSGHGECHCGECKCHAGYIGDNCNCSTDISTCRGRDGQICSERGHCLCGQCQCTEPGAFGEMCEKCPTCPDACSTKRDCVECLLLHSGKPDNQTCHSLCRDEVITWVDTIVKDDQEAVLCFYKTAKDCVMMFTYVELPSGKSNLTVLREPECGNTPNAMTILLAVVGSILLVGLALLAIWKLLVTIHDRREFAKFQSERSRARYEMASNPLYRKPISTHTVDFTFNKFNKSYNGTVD
Procedure, shortened: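 Human αvβ5 (30-1,000 nM) flowed for 10 min at 25 °C over immobilized cyclic peptide in 20 mM HEPES, 150 mM NaCl, 5 mM MgCl2, pH 7.4, followed by 30 min running buffer and 0.5 M EDTA regeneration. Dissociation constant from peptide minus unimmobilized channel, scored into standard grades.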

[2] = Evaluation of molecule stability (alkali treatment, residual rate by LC/MS); type: physicochemical; settings: for Performance evaluation: Stability (residual rate of cyclic peptide after alkali treatment): 500 μM peptide aqueous solution plus equivalent of 1 M sodium hydroxide, 15° C., 3 hours, LC/MS peak area; for Stability (molecule stability, residual rate of the cyclic peptide rank): alkali treatment, residual rate by LC/MS
Procedure, shortened: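 Stability read as percent of summed LC/MS peak area remaining versus untreated peptide (C18, 45 °C, 10 mM ammonium formate pH 3, ESI positive/negative). Treatment: 500 μM peptide in water plus an equivalent of 1 M NaOH, 15 °C for 3 hours.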

[3] = SPR, 25° C., HEPES buffer with 5 mM magnesium chloride, integrin 30-1,000 nM, read-out: Performance evaluation: Binding activity (dissociation constant between the cyclic peptide and human integrin αvβ5)
[4] = surface plasmon resonance, immobilized cyclic peptide, human integrin αvβ5, read-out: Binding activity (integrin binding property, dissociation constant rank)

pKd [1, 3] | pKd [1, 4] | SMILES | Performance evaluation: Stability (residual rate of cyclic peptide after alkali treatment) [2] | Stability (molecule stability, residual rate of the cyclic peptide rank) [2]
7.00 to 7.30 |  | N=C(N)NCCC[C@@H]1NC(=O)[C@H](Cc2ccc(O)cc2)NC(=O)[C@H](CC(N)=O)NC(=O)[C@H](CC(=O)O)NC(=O)CNC(=O)[C@H](CCCNC(=N)N)NC(=O)[C@@H]2CCCN2C(=O)[C@H](CCC(=O)O)NC(=O)[C@@H](NC(=O)CNC(=O)[C@H](CCCCN)NC(=O)[C@H](CCCCN)NC(=O)[C@@H](N)CCCCN)CCSCC(=O)NCC[C@@H](C(=O)N[C@@H](CC(=O)O)C(=O)O)NC1=O [Cyclic peptide 37, KKKG-(Hcy)-EPRGDNYR(Dab(acetyl))D] (H-KKKG[hCys]EPRGDNYR[Dab]D-OH; linker 5-14 via X2) | A (The residual rate of the cyclic peptide is 70% or more.) | 
7.00 to 7.30 |  | CC[C@H](C)[C@@H]1NC(=O)[C@@H](NC(=O)[C@H](CCCCN)NC(=O)[C@H](CCCCN)NC(=O)[C@@H](N)CCCCN)CCSCC(=O)NCC[C@@H](C(=O)N[C@@H](C)C(=O)O)NC(=O)[C@H](Cc2ccccc2)NC(=O)[C@H](CC(N)=O)NC(=O)[C@H](CC(=O)O)NC(=O)CNC(=O)[C@H](CCCNC(=N)N)NC(=O)[C@@H]2CCCN2C1=O [Cyclic peptide 10, KKK-(Hcy)-IPRGDNF(Dab(acetyl))A] (H-KKK[hCys]IPRGDNF[Dab]A-OH; linker 4-12 via X2) | A (The residual rate of the cyclic peptide is 70% or more.) | 
7.00 to 7.30 |  | N=C(N)NCCC[C@@H]1NC(=O)[C@H](Cc2ccc(O)cc2)NC(=O)[C@H](CC(N)=O)NC(=O)[C@H](CC(=O)O)NC(=O)CNC(=O)[C@H](CCCNC(=N)N)NC(=O)[C@@H]2CCCN2C(=O)[C@H](CCC(=O)O)NC(=O)[C@@H](NC(=O)[C@H](CCCCN)NC(=O)[C@H](CCCCN)NC(=O)[C@@H](N)CCCCN)CCSCC(=O)NCC[C@@H](C(=O)O)NC1=O [Cyclic peptide 44, KKK-(Hcy)-EPRGDNYR(Dab(acetyl))] (H-KKK[hCys]EPRGDNYR[Dab]-OH; linker 4-13 via X2) | A (The residual rate of the cyclic peptide is 70% or more.) | 
> 7.30 |  | CC(C)[C@@H]1NC(=O)[C@@H](NC(=O)CNC(=O)[C@H](CCCCN)NC(=O)[C@H](CCCCN)NC(=O)[C@@H](N)CCCCN)CCSCC(=O)NCC[C@@H](C(=O)NCC(=O)O)NC(=O)[C@H](C)NC(=O)[C@H](Cc2ccccc2)NC(=O)[C@H](CO)NC(=O)[C@H](CC(=O)O)NC(=O)CNC(=O)[C@H](CCCNC(=N)N)NC(=O)[C@@H]2CCCN2C1=O [Cyclic peptide 99, KKKG-(Hcy)-VPRGDSFA(Dab(acetyl))G] (H-KKKG[hCys]VPRGDSFA[Dab]G-OH; linker 5-14 via X2) | A (The residual rate of the cyclic peptide is 70% or more.) | 
> 7.30 |  | CC[C@H](C)[C@@H]1NC(=O)[C@@H](NC(=O)[C@H](C)NC(=O)[C@H](CCCCN)NC(=O)[C@H](CCCCN)NC(=O)[C@@H](N)CCCCN)CCSCC(=O)NCC[C@@H](C(=O)N[C@@H](C)C(=O)O)NC(=O)[C@H](C)NC(=O)[C@H](Cc2ccccc2)NC(=O)[C@H]([C@@H](C)O)NC(=O)[C@H](CC(=O)O)NC(=O)CNC(=O)[C@H](CCCNC(=N)N)NC(=O)[C@@H]2CCCN2C1=O [Cyclic peptide 87, KKKA-(Hcy)-IPRGDTFA(Dab(acetyl))A] (H-KKKA[hCys]IPRGDTFA[Dab]A-OH; linker 5-14 via X2) | A (The residual rate of the cyclic peptide is 70% or more.) | 
> 7.30 |  | CC(C)[C@@H]1NC(=O)[C@@H](NC(=O)[C@H](CCCCN)NC(=O)[C@H](CCCCN)NC(=O)[C@@H](N)CCCCN)CCSCC(=O)NCC[C@@H](C(=O)N[C@@H](C)C(=O)O)NC(=O)[C@H](CCCNC(=N)N)NC(=O)[C@H](Cc2ccccc2)NC(=O)[C@H](CC(N)=O)NC(=O)[C@H](CC(=O)O)NC(=O)CNC(=O)[C@H](CCCNC(=N)N)NC(=O)[C@@H]2CCCN2C1=O [Cyclic peptide 21, KKK-(Hcy)-VPRGDNFR(Dab(acetyl))A] (H-KKK[hCys]VPRGDNFR[Dab]A-OH; linker 4-13 via X2) | A (The residual rate of the cyclic peptide is 70% or more.) | 

Continued, compound first:

SMILES | pKd [1, 3] | pKd [1, 4] | Performance evaluation: Stability (residual rate of cyclic peptide after alkali treatment) [2] | Stability (molecule stability, residual rate of the cyclic peptide rank) [2]
C[C@H](NC(=O)[C@H](CCCCN)NC(=O)[C@H](CCCCN)NC(=O)[C@@H](N)CCCCN)C(=O)N[C@H]1CCSCC(=O)NCC[C@@H](C(=O)N[C@@H](CC(=O)O)C(=O)O)NC(=O)[C@H](CCCNC(=N)N)NC(=O)[C@H](Cc2ccccc2)NC(=O)[C@H](CC(N)=O)NC(=O)[C@H](CC(=O)O)NC(=O)CNC(=O)[C@H](CCCNC(=N)N)NC(=O)[C@@H]2CCCN2C(=O)[C@H](CCC(=O)O)NC1=O [Cyclic peptide 34, KKKA-(Hcy)-EPRGDNFR(Dab(acetyl))D] (H-KKKA[hCys]EPRGDNFR[Dab]D-OH; linker 5-14 via X2) | > 7.30 |  | A (The residual rate of the cyclic peptide is 70% or more.) | 
N=C(N)NCCC[C@@H]1NC(=O)[C@H](Cc2ccc(O)cc2)NC(=O)[C@H](CC(N)=O)NC(=O)[C@H](CC(=O)O)NC(=O)CNC(=O)[C@H](CCCNC(=N)N)NC(=O)[C@@H]2CCCN2C(=O)[C@H](CCC(=O)O)NC(=O)[C@@H](NC(=O)[C@H](CC(=O)O)NC(=O)[C@H](CCCCN)NC(=O)[C@H](CCCCN)NC(=O)[C@@H](N)CCCCN)CCSCC(=O)NCC[C@@H](C(=O)N[C@@H](CC(=O)O)C(=O)O)NC1=O [Cyclic peptide 38, KKKD-(Hcy)-EPRGDNYR(Dab(acetyl))D] (H-KKKD[hCys]EPRGDNYR[Dab]D-OH; linker 5-14 via X2) | 7.00 to 7.30 |  | A (The residual rate of the cyclic peptide is 70% or more.) | 
CC[C@H](C)[C@@H]1NC(=O)[C@@H](NC(=O)CNC(=O)[C@H](CCCCN)NC(=O)[C@H](CCCCN)NC(=O)[C@@H](N)CCCCN)CCSCC(=O)NCC[C@@H](C(=O)NCC(=O)O)NC(=O)[C@H](C)NC(=O)[C@H](Cc2ccccc2)NC(=O)[C@H](CO)NC(=O)[C@H](CC(=O)O)NC(=O)CNC(=O)[C@H](CCCNC(=N)N)NC(=O)[C@@H]2CCCN2C1=O [Cyclic peptide 95, KKKG-(Hcy)-IPRGDSFA(Dab(acetyl))G] (H-KKKG[hCys]IPRGDSFA[Dab]G-OH; linker 5-14 via X2) | > 7.30 |  | A (The residual rate of the cyclic peptide is 70% or more.) | 
C[C@H](NC(=O)[C@@H]1CCNC(=O)CSCC[C@H](NC(=O)[C@H](C)NC(=O)[C@H](CCCCN)NC(=O)[C@H](CCCCN)NC(=O)[C@@H](N)CCCCN)C(=O)N[C@@H]([C@@H](C)O)C(=O)N[C@@H]([C@@H](C)O)C(=O)N[C@@H](CCCNC(=N)N)C(=O)NCC(=O)N[C@@H](CC(=O)O)C(=O)N[C@@H](CO)C(=O)N[C@@H](Cc2ccccc2)C(=O)N[C@@H](C)C(=O)N1)C(=O)O [Cyclic peptide 161, KKKA-(Hcy)-TTRGDSFA(Dab(acetyl))A] (H-KKKA[hCys]TTRGDSFA[Dab]A-OH; linker 5-14 via X2) |  | 7.00 to 7.30 |  | A (The residual rate of the cyclic peptide is 70% or more.)
CC[C@H](C)[C@@H]1NC(=O)[C@@H](NC(=O)[C@H](C)NC(=O)[C@H](CCCCN)NC(=O)[C@H](CCCCN)NC(=O)[C@@H](N)CCCCN)CCNC(=O)CSC(C)(C)[C@@H](C(=O)N[C@@H](C)C(=O)O)NC(=O)[C@H](C)NC(=O)[C@H](Cc2ccccc2)NC(=O)[C@H](CO)NC(=O)[C@H](CC(=O)O)NC(=O)CNC(=O)[C@H](CCCNC(=N)N)NC(=O)[C@@H]2CCCN2C1=O [Cyclic peptide 137, KKKA(Dab(acetyl))IPRGDSFA-(Pen)-A] (H-KKKA[Dab]IPRGDSFA[Pen]A-OH; linker 5-14 via X1) |  | 7.00 to 7.30 |  | A (The residual rate of the cyclic peptide is 70% or more.)
CC(C)[C@@H]1NC(=O)[C@@H](NC(=O)[C@H](C)NC(=O)[C@H](CCCCN)NC(=O)[C@H](CCCCN)NC(=O)[C@@H](N)CCCCN)CCSCC(=O)NCC[C@@H](C(=O)NCC(=O)O)NC(=O)[C@H](C)NC(=O)[C@H](Cc2ccccc2)NC(=O)[C@H](CO)NC(=O)[C@H](CC(=O)O)NC(=O)CNC(=O)[C@H](CCCNC(=N)N)NC(=O)[C@@H]2CCCN2C1=O [Cyclic peptide 97, KKKA-(Hcy)-VPRGDSFA(Dab(acetyl))G] (H-KKKA[hCys]VPRGDSFA[Dab]G-OH; linker 5-14 via X2) | > 7.30 |  | A (The residual rate of the cyclic peptide is 70% or more.) | 
CC[C@H](C)[C@@H]1NC(=O)[C@@H](NC(=O)[C@H](CCCCN)NC(=O)[C@H](CCCCN)NC(=O)[C@@H](N)CCCCN)CCSCC(=O)NCC[C@@H](C(=O)N[C@@H](C)C(=O)O)NC(=O)[C@H](CCCNC(=N)N)NC(=O)[C@H](Cc2ccc(O)cc2)NC(=O)[C@H](CC(N)=O)NC(=O)[C@H](CC(=O)O)NC(=O)CNC(=O)[C@H](CCCNC(=N)N)NC(=O)[C@@H]2CCCN2C1=O [Cyclic peptide 26, KKK-(Hcy)-IPRGDNYR(Dab(acetyl))A] (H-KKK[hCys]IPRGDNYR[Dab]A-OH; linker 4-13 via X2) | 7.00 to 7.30 |  | A (The residual rate of the cyclic peptide is 70% or more.) | 
